Paper PMC8000889, “Phenolic Compounds from Leaves and Flowers of Hibiscus roseus: Potential Skin Cosmetic Applications of an Under-Investigated Species” (Plants, 2021)
≈ marks a conversion by molar mass, not a printed value.

Biological target: T1, collagenase (Collagenase Activity Assay Kit, Sigma-Aldrich)
T1 construct: gene colG
Assay: FALGPA hydrolysis, absorbance at […] nm
Assay type: biochemical
Conditions: substrate FALGPA; 96-well plate, 200 μL, followed for 20 min

`O=c1c(O)c(-c2ccc(O)c(O)c2)oc2cc(O)cc(O)c12` [quercetin] showed an IC50 of 5.6 ± 0.7 µg/mL (≈ 18.5 µM).
